Results: US10357549B2, “Pigment epithelium-derived factor (PEDF) and peptide derivatives thereof for use in osteoblast differentiation and bone growth” (Yale University, priority 2014, dated 2019)

How the values were obtained:
Type in all cases: cell-based, human
[1] = tested on: Wnt cell surface receptor LRP6; experiment: Canonical Wnt-β-catenin signaling in hMSCs (immunoblot of phospho-LRP6 and active β-catenin); conditions: IWP-2 2 μM incubation 48 h alone
Protocol: The inhibitor of Wnt production (IWP-2; Tocris Bioscience, Minneapolis, Minn., USA; 2 μM×24-48 h) was used to block production of endogenous Wnt proteins (Chen et al., 2009, Nat Chem Biol, 5: 100-107; Clevers et al., 2012, Cell, 149: 1192-1205). All other chemicals, unless indicated, were purchased from Sigma (St. Louis, Mo., USA).
Adipose-derived hMSCs [American Type Culture Collection (ATCC), Manasses, Va., USA; PCS-500-011) were propagated in MSC basal medium supplemented with MSC growth kit (ATCC). Cells were CD29, CD44, CD105, and CD166 positive and negative for CD 31, CD34, and CD45. Interrogation of Wnt-β-catenin signaling was done in ATCC MSC basal medium with 2% FBS. PEDF (500 ng/ml) was added for 6 h. Passage 2 and 3 hMSCs were used for Wnt signaling experiments. For adipocyte conversion, cells (5000 cells/cm^2) were placed in adipocyte differentiation medium (ATCC; PCS-500-050) for 9-10 d. For osteoblast differentiation, cells (5000 cells/cm^2) were differentiated in osteoblast differentiation medium (ATCC; PCS-500-052) for 10-21 d. Alkaline phosphatase kit (Sigma) was used to stain osteoblasts.
Immunoblotting was performed as described previously (Schmitz et al., 2011, Am J Pathol, 179: 2990-2999). Proteins were separated by 10% SDS-PAGE on gradient gels (Bio-Rad, Hercules, Calif., USA). Antibodies against nonphosphorylated β-catenin, total β-catenin, phospho-LRP6 (serine 1490), total LRP6 (Cell Signaling Technologies, Danvers, Mass., USA), and alkaline phosphatase (Developmental Studies Hybridoma Bank, University of Iowa, Iowa City, Iowa, USA). To assess signaling through the Wnt coreceptor LRP6, 3T3 adipocyte precursors with vector and LRP6-KO shRNA were used (Liu et al., 2012, J Biol Chem, 287: 7213-7223). On confluence, cells were serum starved for 48 h, and then changed to DMEM with 10% FCS (d 0). PEDF (10 nM) was added on d 0, and cells were harvested after 48 h. Knockdown was confirmed by immunoblotting for total LRP6. β-actin (Sigma) was used as a loading control.

hMSCs = experiment: Mineralization of hMSCs under continuous Wnt3a (Alizarin red, 21 days)
Protocol: Experiments were conducted to evaluate the effect of PEDF-derived peptides on the mineralization of hMSCs. […] For “late” groups, PEDF 34-mer was added only during the last 8 days of the differentiation protocol. Mineralization was assessed by Alizarin red staining (FIG. 14C).

β-catenin = experiment: Active β-catenin and mature osteoblast gene expression in hMSC cultures with Wnt3a and PEDF peptides; conditions: hMSC differentiated for 21 days, 50 ng/ml Wnt3a and 100 nM peptide
Protocol: Experiments were conducted to evaluate the effect of Wnt3a and PEDF-derived peptides on β-catenin, a transcriptional regulator of osteoblast differentiation. Cultures incubated in 50 ng/ml Wnt3a alone or in combination with 100 nM PEDF-derived peptides.

Compound | LRP6 phosphorylation (endogenous Wnt production) [1] | Alizarin red quantitation relative to native PEDF 34-mer (hMSCs; 100 nM peptide with continuous Wnt3a 50 ng/ml, 21 days) | mineralization of hMSCs, final phase addition (hMSCs; added last 8 of 21 days) | osteoblast mineralization, peptide added in the last eight days (hMSCs; added last 8 of 21 days, continuous Wnt3a 50 ng/ml) | expression of osterix (OSX) (β-catenin)
Cc1ccc2nc(NC(=O)CSc3nc4c(c(=O)n3-c3ccccc3)SCC4)sc2c1 [IWP-2, reference compound] | near absence of LRP6 phosphorylation | – | – | – | –
DPFFKVPVNALAAAVSNFGYDLYRVRSSTSPTTN [SEQ ID NO: 4, mutated K→A PEDF 34-mer peptide] | – | gain of function properties | stimulates mineralization | comparable to the full-length protein added for 21 days | increases the expression of osterix (OSX)
